Assay [1] has as its system mutant Huntington (HTT) protein. The experiment in a line: HTT Mutant HTRF iPSC assay (mHTT protein lowering). In kind it is cell-based. The conditions noted are these: human iPSC derived from a HTT patient with a poly-Q49 mutation.
For assay [2], the system named is mHTT protein. As to conditions: HD patient cells; cited from earlier work.
The subject of assay [3] is mHTT protein. As to conditions: HD mouse model; cited from earlier work.
For assay [4], the system named is mHTT protein. The conditions noted are these: blood samples from SMA Type I patients dosed orally; cited from earlier work.

Where two headings read alike, the source gives them in different places. Bounds are passed on as bounds.

Turning to `Cc1cn2cc(NC(=O)c3cc4ncc(N5CC(C)(N)C5)nc4s3)cc(F)c2n1` [Compound 258, 3-(3-amino-3-methylazetidin-1-yl)-N-(8-fluoro-2-methylimidazo[1,2-a]pyridin-6-yl)thieno[2,3-b]pyrazine-6-carboxamide], in assay [1], the IC50 was under 100 nM.

The molecule `CCN1CCN(c2ccc3oc(C(=O)Nc4cc5cc(C)nn5cc4OC)cc3n2)CC1` [Compound 259, 5-(4-ethylpiperazin-1-yl)-N-(6-methoxy-2-methylpyrazolo[1,5-a]pyridin-5-yl)furo[3,2-b]pyridine-2-carboxamide] displayed an IC50 in assay [1] of 100 to 1000 nM. As for `COc1nc(NC(=O)c2cc3nc(C4CCN(C)CC4)ccc3o2)cn2cc(C)nc12` [Compound 262, N-(8-methoxy-2-methylimidazo[1,2-a]pyrazin-6-yl)-5-(1-methylpiperidin-4-yl)furo[3,2-b]pyridine-2-carboxamide], the IC50 in assay [1] fell in the range of 100 to 1000 nM. The same measure, in the same setting: the figure for `COc1cc2nn(C)cc2cc1NC(=O)c1cc2nc(N3CCN(C)CC3)ccc2o1` [Compound 263, N-(6-methoxy-2-methyl-2H-indazol-5-yl)-5-(4-methylpiperazin-1-yl)furo[3,2-b]pyridine-2-carboxamide] is under 100 nM. The same measure, in the same setting: under `COc1cc(NC(=O)c2nc3ccc(N4CC5(CCN(C)C5)C4)nc3s2)cn2cc(C)nc12` [Compound 267, N-(8-methoxy-2-methylimidazo[1,2-a]pyridin-6-yl)-5-(6-methyl-2,6-diazaspiro[3.4]octan-2-yl)thiazolo[5,4-b]pyridine-2-carboxamide] stands under 100 nM; under `Cc1cn2cc(NC(=O)c3cc4ncc(N5C[C@@H]6CN(C)C[C@@H]65)nc4s3)cc(F)c2n1` [Compound 268, N-(8-fluoro-2-methyl-imidazo[1,2-a]pyridin-6-yl)-3-[(1S,5R)-3-methyl-3,6-diazabicyclo[3.2.0]heptan-6-yl]thieno[2,3-b]pyrazine-6-carboxamide], 100 to 1000 nM; under `COc1cc2nn(C)cc2cc1NC(=O)c1cc2nc(C3CCN(C)CC3)ccc2o1` [Compound 269, N-(6-methoxy-2-methyl-2H-indazol-5-yl)-5-(1-methylpiperidin-4-yl)furo[3,2-b]pyridine-2-carboxamide], 100 to 1000 nM. In the case of `CC1(C)CC(Oc2ccc(-c3ccc(-c4cn[nH]c4)cc3O)nn2)CC(C)(C)N1` [branaplam], the mHTT protein levels result in the assay with mHTT protein [2], with mHTT protein [3] and in the assay with mHTT protein [4] was “lowers mHTT protein levels” throughout.

These data come from US20260035387A1 (BIOGEN MA INC., priority 2022, published 2026).
